This note sets out measurements from patent publication US20260274833A1 (NiKang Therapeutics, Inc., priority 2022, published 2026).

The target of the assay is T1, CDK2 (Homo sapiens, UniProt P24941).
T1 construct: endogenous in cells; host or cells: OVCAR3 cells
In words: Phospho-RB measurement in OVCAR3 cells (HTRF phospho-RB cellular kit). To be noted: inhibition of RB phosphorylation at S807/811 (HTRF, TR-FRET ratio 665/620), 24 h compound treatment, 0.3 to 10,000 nM. Format: cell-based. The gist of the method: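 IC50 came from a four-parameter logistic fit of the DMSO-normalized TR-FRET ratio (665/620 nm). That ratio reflects RB phosphorylation at S807/811, read with an HTRF antibody pair 4 h after adding lysate at room temperature.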
On the technique in general: TR-FRET usually uses a lanthanide donor and a delayed reading to cut background.
On to `CN1CCN(S(=O)(=O)Nc2cccc(-c3nc(C45CC(C4)C5)sc3-c3ccnc(NC4CC5(C4)CS(=O)(=O)C5)n3)c2F)c2ccccc21` [Example 274, N-(3-(2-(bicyclo [1.1.1]pentan-1-yl)-5-(2-((2,2-dioxido-2-thiaspiro[3.3]heptan-6-yl)amino)-pyrimidin-4-yl)thiazol-4-yl)-2-fluorophenyl)-4-methyl-3,4-dihydro-quinoxaline-1(2H)-sulfonamide], for which the IC50 was 0.13 µM.

For the molecule `CC(C)(C)c1nc(-c2cccc(NS(=O)(=O)N3Cc4cccnc4C3)c2F)c(-c2ccnc(NC3CCN(S(C)(=O)=O)CC3)n2)s1` [Example 95, N-(3-(2-(tert-butyl)-5-(2-((1-(methylsulfonyl)piperidin-4-yl)amino)-pyrimidin-4-yl)thiazol-4-yl)-2-fluoro-phenyl)-5,7-dihydro-6H-pyrrolo-[3,4-b]pyridine-6-sulfonamide], the IC50 amounted to 0.61 µM.

For `CC(C)(C)c1nc(-c2cccc(NS(=O)(=O)N3Cc4ccc(C(F)(F)F)cc4C3)c2F)c(-c2ccnc(NC3CCN(S(C)(=O)=O)CC3)n2)s1` [Example 243, N-(3-(2-(tert-butyl)-5-(2-((1-(methylsulfonyl)-piperidin-4-yl)amino)-pyrimidin-4-yl)thiazol-4-yl)-2-fluoro-phenyl)-5-(trifluoromethyl)-isoindoline-2-sulfonamide], the IC50 amounted to 1.2 µM.

In the case of `CN1CC2CCC(C1)N2c1nc(-c2cccc(NS(=O)(=O)N3CCc4ccccc43)c2F)c(-c2ccnc(NC3CC4(C3)CS(=O)(=O)C4)n2)s1` [Example 17, N-(3-(5-(2-((2,2-dioxido-2-thiaspiro-[3.3]-heptan-6-yl)amino)pyrimidin-4-yl)-2-(3-methyl-3,8-diazabicyclo[3.2.1]-octan-8-yl)thiazol-4-yl)-2-fluorophenyl)-indoline-1-sulfonamide], the IC50 came to 0.015 µM.

As to `CC1(c2nc(-c3cccc(NS(=O)(=O)N4Cc5cccc(C(F)(F)F)c5C4)c3F)c(-c3ccnc(NC4CC5(C4)CS(=O)(=O)C5)n3)s2)CCOCC1` [Example 3, N-(3-(5-(2-((2,2-dioxido-2-thiaspiro-[3.3]-heptan-6-yl)amino)pyrimidin-4-yl)-2-(4-methyltetrahydro-2H-pyran-4-yl)thiazol-4-yl)-2-fluorophenyl)-4-(trifluoromethyl) isoindoline-2-sulfonamide], the IC50 was 0.0486 µM.

For `O=S1(=O)CC2(CC(Nc3nccc(-c4sc(N5C6CCC5CN(CC(F)(F)F)C6)nc4-c4cccc(NS(=O)(=O)N5CCc6ccc(C(F)(F)F)cc65)c4F)n3)C2)C1` [Example 39, N-(3-(5-(2-((2,2-dioxido-2-thiaspiro-[3.3]-heptan-6-yl)amino)pyrimidin-4-yl)-2-(3-(2,2,2-trifluoroethyl)-3,8-diazabicyclo[3.2.1]-octan-8-yl)thiazol-4-yl)-2-fluorophenyl)-6-(trifluoromethyl)-indoline-1-sulfonamide], the IC50 came out at 0.752 µM.

In the case of `CC(C)(C)c1nc(-c2cccc(NS(=O)(=O)N3Cc4ccc(F)cc4C3)c2F)c(-c2ccnc(NC3CCN(S(=O)(=O)N4CCNCC4)CC3)n2)s1` [Example 144, N-(3-(2-(tert-butyl)-5-(2-((1-(piperazin-1-ylsulfonyl)piperidin-4-yl)amino)-pyrimidin-4-yl)thiazol-4-yl)-2-fluoro-phenyl)-5-fluoro-isoindoline-2-sulfonamide], the IC50 was 0.227 µM.

As to `CN(C)S(=O)(=O)Nc1cccc(-c2nc(C(C)(C)C)sc2-c2ccnc(NC3CC4(C3)CS(=O)(=O)C4)n2)c1F` [Example 184, N-(3-(2-(tert-butyl)-5-(2-((2,2-dioxido-2-thiaspiro[3.3]heptan-6-yl)amino)-pyrimidin-4-yl)thiazol-4-yl)-2-fluoro-phenyl)dimethyl-aminesulfonamide], the IC50 came out at 1.54 µM.

For the molecule `CN(C)C(=O)c1ccc2c(c1)N(S(=O)(=O)Nc1cccc(-c3nc(C(C)(C)C)sc3-c3ccnc(NC4CC5(C4)CS(=O)(=O)C5)n3)c1F)CC2` [Example 198, 1-(N-(3-(2-(tert-butyl)-5-(2-((2,2-dioxido-2-thiaspiro[3.3]heptan-6-yl)amino)pyrimidin-4-yl)thiazol-4-yl)-2-fluorophenyl)sulfamoyl)-N,N-dimethylindoline-6-carboxamide], the IC50 worked out at 0.667 µM.

In the case of `O=S1(=O)CC2(CC(Nc3nccc(-c4sc(C56CC(C5)C6)nc4-c4cccc(NS(=O)(=O)N5CCc6c5cccc6C(F)(F)F)c4F)n3)C2)C1` [Example 42, N-(3-(2-(bicyclo [1.1.1]pentan-1-yl)-5-(2-((2,2-dioxido-2-thiaspiro[3.3]heptan-6-yl)amino)-pyrimidin-4-yl)thiazol-4-yl)-2-fluorophenyl)-4-(trifluoromethyl)-indoline-1-sulfonamide], the IC50 came to 0.278 µM.

With `CN(c1ccccc1)S(=O)(=O)Nc1cccc(-c2nc(C(C)(C)C)sc2-c2ccnc(NC3CCN(S(C)(=O)=O)CC3)n2)c1F` [Example 100, N-(3-(2-(tert-butyl)-5-(2-((1-(methylsulfonyl)piperidin-4-yl)amino)-pyrimidin-4-yl)thiazol-4-yl)-2-fluorophenyl)(N-methyl-N-phenyl)-aminosulfonamide], the IC50 was 1.24 µM.

For `COc1cccc2c1CN(S(=O)(=O)Nc1cccc(-c3nc(C(C)(C)C)sc3-c3ccnc(N[C@H]4[C@@H]5CS(=O)(=O)C[C@@H]54)n3)c1F)C2` [Example 221, N-(3-(2-(tert-butyl)-5-(2-(((1R,5S,6r)-3,3-dioxido-3-thiabicyclo [3.1.0]hexan-6-yl)amino)pyrimidin-4-yl)thiazol-4-yl)-2-fluorophenyl)-4-methoxyisoindoline-2-sulfonamide], the IC50 worked out at 0.0355 µM.

`N=S1(=O)CC2(CC(Nc3nccc(-c4sc(C56CC(C5)C6)nc4-c4cccc(NS(=O)(=O)N5CCc6ccccc65)c4F)n3)C2)C1` (stereo not drawn) [Example 271, N-(3-(2-(bicyclo [1.1.1]pentan-1-yl)-5-(2-((2-imino-2-oxido-26-thiaspiro[3.3]-heptan-6-yl)-amino)pyrimidin-4-yl)thiazol-4-yl)-2-fluorophenyl) indoline-1-sulfonamide]: the IC50 is 8.15 µM.

Regarding `COc1cccc2c1CN(S(=O)(=O)Nc1cccc(-c3nc(C(C)(C)C)sc3-c3ccnc(NC4CCN(S(=O)(=O)N5CCNCC5)CC4)n3)c1F)C2` [Example 143, N-(3-(2-(tert-butyl)-S-(2-((1-(piperazin-1-ylsulfonyl)piperidin-4-yl)amino)-pyrimidin-4-yl)thiazol-4-yl)-2-fluoro-phenyl)-4-methoxy-isoindoline-2-sulfonamide], the IC50 came to 0.136 µM.

Turning to `CC(C)(C)c1nc(-c2cccc(NS(=O)(=O)N3CCC4(CC4)C3)c2F)c(-c2ccnc(NC3CCN(S(C)(=O)=O)CC3)n2)s1` [Example 166, N-(3-(2-(tert-butyl)-5-(2-((1-(methylsulfonyl)-piperidin-4-yl)amino)-pyrimidin-4-yl)thiazol-4-yl)-2-fluoro-phenyl)-5-azaspiro[2.4] heptane-5-sulfonamide], the concentration for half-maximal inhibition (IC50) came to 0.277 µM.

Take `CCOc1cccc2c1CN(S(=O)(=O)Nc1cccc(-c3nc(C(C)(C)C)sc3-c3ccnc(NC4CC5(C4)CS(=O)(=O)C5)n3)c1F)C2` [Example 204, N-(3-(2-(tert-butyl)-5-(2-((2,2-dioxido-2-thiaspiro[3.3]heptan-6-yl)amino)-pyrimidin-4-yl)thiazol-4-yl)-2-fluoro-phenyl)-4-ethoxyisoindoline-2-sulfonamide]: the IC50 is 0.0692 µM.

For `CC(C)(C)c1nc(-c2cccc(NS(=O)(=O)N3CCc4c(CN5CCOCC5)cccc43)c2F)c(-c2ccnc(NC3CCN(S(C)(=O)=O)CC3)n2)s1` [Example 245, N-(3-(2-(tert-butyl)-5-(2-((1-(methylsulfonyl)piperidin-4-yl)amino)-pyrimidin-4-yl)thiazol-4-yl)-2-fluorophenyl)-4-(morpholinomethyl)-indoline-1-sulfonamide], the IC50 worked out at 0.338 µM.

`CC(C)(C)c1nc(-c2cccc(NS(=O)(=O)N3CC4CC4C3)c2F)c(-c2ccnc(NC3CCN(S(=O)(=O)N4CCNCC4)CC3)n2)s1` (stereo not drawn) [Example 155, N-(3-(2-(tert-butyl)-5-(2-((1-(piperazin-1-ylsulfonyl)piperidin-4-yl)amino)-pyrimidin-4-yl)thiazol-4-yl)-2-fluorophenyl)-3-azabicyclo[3.1.0]-hexane-3-sulfonamide]: the IC50 was found to be 1.06 µM.

As for `CC(C)(C)c1nc(-c2cccc(NS(=O)(=O)N3CCNc4ccccc4C3)c2F)c(-c2ccnc(NC3CCN(S(=O)(=O)N4CCNCC4)CC3)n2)s1` [Example 116, N-(3-(2-(tert-butyl)-S-(2-((1-(piperazin-1-ylsulfonyl)piperidin-4-yl)amino)-pyrimidin-4-yl)thiazol-4-yl)-2-fluorophenyl)-1,2,3,5-tetrahydro-4H-benzo[e][1,4] diazepine-4-sulfonamide], the IC50 was 0.39 µM.

For `O=S1(=O)C[C@@H]2[C@H](C1)[C@H]2Nc1nccc(-c2sc(C34CC(C3)C4)nc2-c2cccc(NS(=O)(=O)N3CCc4c(CO)cccc43)c2F)n1` [Example 13, N-(3-(2-(bicyclo [1.1.1]pentan-1-yl)-5-(2-(((1R,5S,6r)-3,3-dioxido-3-thia-bicyclo[3.1.0]-hexan-6-yl)amino)-pyrimidin-4-yl)thiazol-4-yl)-2-fluorophenyl)-4-(hydroxymethyl)-indoline-1-sulfonamide], the IC50 came to 0.0577 µM.

`O=S1(=O)CC2(CC(Nc3nccc(-c4sc(C56CC(C5)C6)nc4-c4cccc(NS(=O)(=O)N5Cc6cccc(OC(F)F)c6C5)c4F)n3)C2)C1` [Example 24, N-(3-(2~(bicyclo [1.1.1]pentan-1-yl)-5-(2-((2,2-dioxido-2-thiaspiro[3.3]heptan-6-yl)amino)-pyrimidin-4-yl)thiazol-4-yl)-2-fluorophenyl)-4-(difluoromethoxy)-isoindoline-2-sulfonamide]: the IC50 is 0.102 µM.

Usually IC50 stands for the concentration that inhibits the measured activity by half.
